Reference: PubChem BioAssay (NCI)
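Assay format: 96-well plates, 48-hour exposure. GI50 is the concentration that inhibits growth by half. At the TGI there is no net growth.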

Tests used:
Experiment in all cases: inhibition of tumour cell growth, NCI panel, 48 h
[1] = test system: DU-145 prostate
[2] = test system: CCRF-CEM leukemia
[3] = test system: SW-620 colon
[4] = test system: HCT-15 colon
[5] = test system: ACHN renal
[6] = test system: RPMI-8226 leukemia
[7] = test system: HOP-62 NSCLC
[8] = test system: PC-3 prostate
[9] = test system: HCT-116 colon
[10] = test system: NCI-H460 lung
[11] = test system: NCI/ADR-RES ovarian
[12] = test system: LOX IMVI melanoma
[13] = test system: A549 NSCLC
[14] = test system: HT29 colon
[15] = test system: KM12 colon
[16] = test system: COLO 205 colon
[17] = test system: K-562 leukemia
[18] = test system: HCC-2998 colon
[19] = test system: MCF7 breast
[20] = test system: NCI-H226 lung
[21] = test system: OVCAR-5 ovarian
[22] = test system: 786-0 renal
[23] = test system: SK-MEL-28 melanoma
[24] = test system: M14 melanoma
[25] = test system: OVCAR-4 ovarian
[26] = test system: SNB-19 CNS
[27] = test system: TK-10 renal
[28] = test system: T-47D breast
[29] = test system: SF-268 CNS
[30] = test system: IGROV1 ovarian
[31] = test system: UO-31 renal
[32] = test system: OVCAR-8 ovarian
[33] = test system: RXF 393 renal
[34] = test system: HS 578T breast
[35] = test system: SK-OV-3 ovarian
[36] = test system: A498 renal
[37] = test system: SR leukemia
[38] = test system: SF-539 CNS
[39] = test system: HL-60(TB) leukemia
[40] = test system: OVCAR-3 ovarian
[41] = test system: MOLT-4 leukemia

SMILES: CC(C)(C)NCCC(O)c1cc2c(Cl)cc(Cl)cc2c2cc(C(F)(F)F)ccc12 (stereo not drawn)
- GI50 [1]: 1970 nM
- TGI [1]: 3500 nM

SMILES: Cc1cc(Nc2ccc(F)cc2)nc(N2CCN(c3ccnc4cc(Cl)ccc34)CC2)n1
- GI50 [2]: 2990 nM
- TGI [2]: > 100000 nM
- GI50 [3]: 3440 nM
- TGI [3]: > 100000 nM
- GI50 [4]: 2270 nM
- TGI [4]: > 100000 nM
- GI50 [5]: 2840 nM
- TGI [5]: > 100000 nM
- GI50 [6]: 2250 nM
- TGI [6]: > 100000 nM
- GI50 [7]: 4060 nM
- TGI [7]: > 100000 nM
- GI50 [8]: 1790 nM
- TGI [8]: > 100000 nM
- GI50 [9]: 2150 nM
- TGI [9]: > 100000 nM
- GI50 [10]: 2950 nM
- TGI [10]: > 100000 nM
- GI50 [11]: 2880 nM
- TGI [11]: > 100000 nM
- GI50 [12]: 2940 nM
- TGI [12]: > 100000 nM
- GI50 [13]: 3750 nM
- TGI [13]: > 100000 nM
- GI50 [14]: 2960 nM
- TGI [14]: > 100000 nM
- GI50 [15]: 2780 nM
- TGI [15]: 75000 nM
- GI50 [16]: 1800 nM
- TGI [16]: 4390 nM
- GI50 [17]: 2490 nM
- TGI [17]: > 100000 nM
- GI50 [18]: 4050 nM
- TGI [18]: > 100000 nM
- GI50 [19]: 2690 nM
- TGI [19]: > 100000 nM
- GI50 [20]: 4750 nM
- TGI [20]: > 100000 nM

SMILES: COc1ccc(C2=Nc3c/c(=C\c4c(O)[nH]c5ccc(Cl)cc45)ccc3=N2)cc1
- GI50 [2]: 1970 nM
- TGI [2]: 5520 nM
- GI50 [21]: 1860 nM
- TGI [21]: 4000 nM
- GI50 [22]: 1940 nM
- TGI [22]: 3810 nM
- GI50 [3]: 1410 nM
- TGI [3]: 3280 nM
- GI50 [4]: 1260 nM
- TGI [4]: 2770 nM
- GI50 [5]: 1830 nM
- TGI [5]: 3470 nM
- GI50 [23]: 1590 nM
- TGI [23]: 5130 nM
- GI50 [24]: 1290 nM
- TGI [24]: 3670 nM
- GI50 [7]: 1820 nM
- TGI [7]: 4020 nM
- GI50 [25]: 1800 nM
- TGI [25]: 3340 nM
- GI50 [26]: 1840 nM
- TGI [26]: 5850 nM
- GI50 [8]: 1560 nM
- TGI [8]: 4000 nM
- GI50 [27]: 2450 nM
- TGI [27]: 4420 nM
- GI50 [28]: 2220 nM
- TGI [28]: 5630 nM
- GI50 [9]: 1550 nM
- TGI [9]: 3100 nM
- GI50 [29]: 2090 nM
- TGI [29]: 5470 nM
- GI50 [30]: 2160 nM
- TGI [30]: 5280 nM
- GI50 [31]: 1460 nM
- TGI [31]: 3460 nM
- GI50 [32]: 2050 nM
- TGI [32]: 4700 nM
- GI50 [33]: 1580 nM
- TGI [33]: 3150 nM
- GI50 [1]: 1630 nM
- TGI [1]: 3170 nM
- GI50 [34]: 1730 nM
- TGI [34]: 4800 nM
- GI50 [35]: 2230 nM
- TGI [35]: 5230 nM
- GI50 [15]: 1220 nM
- TGI [15]: 2650 nM
- GI50 [16]: 1930 nM
- TGI [16]: 3670 nM
- GI50 [36]: 1330 nM
- TGI [36]: 7780 nM
- GI50 [17]: 1000 nM
- TGI [17]: 6290 nM
- GI50 [37]: 693 nM
- TGI [37]: 3400 nM
- GI50 [18]: 1240 nM
- TGI [18]: 2510 nM
- GI50 [38]: 1780 nM
- TGI [38]: 3870 nM
- GI50 [39]: 1510 nM
- TGI [39]: 3940 nM
- GI50 [40]: 1530 nM
- TGI [40]: 2910 nM
- GI50 [41]: 1990 nM
- TGI [41]: 6080 nM
- GI50 [20]: 13800 nM
- TGI [20]: 37000 nM
